# Results reported in patent publication US9580390B2, “Indazole compounds as kinase inhibitors and method of treating cancer with same” (University Health Network, priority 2011, dated 2017).
# pIC50: −log10 of the molar value.
# Assays:
# [1] = tested on: ovarian cancer cells (PA-1); assay: Cancer cell line growth inhibition (SRB assay); assay type: cell-based; settings: PA-1 ovarian cancer cells, SRB assay; read-out: Cancer Cell Line GI50 Range PA-1
# TICs (Colon 12) = assay: Colon tumor-initiating cell growth inhibition (Alamar Blue); assay type: cell-based; settings: 216 h; colon TICs, 9 days, Alamar Blue; read-out: Tumor Initiating Cell GI50 Range Colon 12
# [2] = tested on: colon cancer cells (HCT116); assay: Cancer cell line growth inhibition (SRB assay); assay type: cell-based; settings: Homo sapiens, HCT-116; HCT116 colon cancer cells, SRB assay; read-out: Cancer Cell Line GI50 Range HCT116
# human PLK4 = biological target: T1, human PLK4 (Homo sapiens, UniProt O00444); assay: PLK4 inhibition assay (indirect ELISA); assay type: biochemical; settings: 15 μM ATP
# T1 construct: amino terminal GST fusion of residues 1-391 of human PLK4; made in house; host or cells: E. coli
# T1 sequence (O00444 1-391): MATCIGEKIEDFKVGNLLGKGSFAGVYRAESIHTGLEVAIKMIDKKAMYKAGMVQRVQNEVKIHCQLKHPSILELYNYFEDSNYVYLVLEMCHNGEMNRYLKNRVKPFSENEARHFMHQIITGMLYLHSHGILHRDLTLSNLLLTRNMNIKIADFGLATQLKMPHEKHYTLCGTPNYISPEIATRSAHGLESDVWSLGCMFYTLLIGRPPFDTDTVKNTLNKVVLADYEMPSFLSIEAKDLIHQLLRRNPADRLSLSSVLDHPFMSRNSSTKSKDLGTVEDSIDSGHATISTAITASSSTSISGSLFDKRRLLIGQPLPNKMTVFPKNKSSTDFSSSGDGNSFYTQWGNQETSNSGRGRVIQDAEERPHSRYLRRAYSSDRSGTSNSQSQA
# How it was run: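 Dephosphorylated GST-PLK4 (residues 1-391, E. coli; 4 nM) was preincubated 15 min with compound, then reacted 30 min with 15 μM ATP in HEPES pH 7.4, MgCl2, Brij 35 on MBP-coated plates. Phospho-MBP was detected by antibody/HRP ELISA at 450 nm; IC50 from 10-point titration by 4-parameter logistic fit, or single 10 μM % inhibition.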
# TICs (Ovarian 2393A) = assay: Ovarian tumor-initiating cell growth inhibition (Alamar Blue); assay type: cell-based; settings: 144 h; ovarian TICs, 6 days, Alamar Blue; read-out: Tumor Initiating Cell GI50 Range Ovarain 2393A
GI50 [1] [nM],GI50 (TICs (Colon 12)) [nM],GI50 [2] [nM],pIC50 (human PLK4),GI50 (TICs (Ovarian 2393A)) [nM],Structure (SMILES)
100 to 500,< 100,< 100,> 7.30,100 to 500,"CC[C@@H](NC(=O)c1ccc2[nH]nc(-c3ccc(OC4CCN(CCOC)CC4)cc3)c2c1)c1ccccc1Cl [Example A128, (R)-N-(1-(2-chlorophenyl)propyl)-3-(4-((1-(2-methoxyethyl)piperidin-4-yl)oxy)phenyl)-1H-indazole-5-carboxamide]"
< 100,< 100,< 100,> 7.30,100 to 500,"Cc1ccccc1C(C(=O)Nc1ccc2[nH]nc(-c3ccc(OC4CCN(C)CC4)cc3)c2c1)N1CCCC1 (stereo not drawn) [Example A133, N-(3-(4-((1-methylpiperidin-4-yl)oxy)phenyl)-1H-indazol-5-yl)-2-(pyrrolidin-1-yl)-2-(o-tolyl)acetamide]"
< 100,> 500,< 100,> 7.30,< 100,"CN1CCC(Oc2ccc(-c3n[nH]c4ccc(C(=O)NC(c5ccccc5F)C5CC5)cc34)cc2)CC1 (stereo not drawn) [Example A136, N-(cyclopropyl(2-fluorophenyl)methyl)-3-(4-((1-methylpiperidin-4-yl)oxy)phenyl)-1H-indazole-5-carboxamide]"
100 to 500,> 500,< 100,> 7.30,100 to 500,"CN1CCC(Oc2ccc(-c3n[nH]c4ccc(C(=O)N[C@H](CCO)c5ccccc5)cc34)cc2)CC1 [Example A137, (R)-N-(3-hydroxy-1-phenylpropyl)-3-(4-((1-methylpiperidin-4-yl)oxy)phenyl)-1H-indazole-5-carboxamide]"
< 100,< 100,< 100,> 7.30,100 to 500,"CN1CCC(Oc2ccc(-c3n[nH]c4ccc(NC(=O)C(c5ccccc5)C5CC5)cc34)cc2)CC1 (stereo not drawn) [Example A138, 2-cyclopropyl-N-(3-(4-((1-methylpiperidin-4-yl)oxy)phenyl)-1H-indazol-5-yl)-2-phenylacetamide]"
< 100,< 100,< 100,> 7.30,< 100,"CN1CCC(Oc2ccc(-c3n[nH]c4ccc(C(=O)NC(c5ccccc5Cl)C5CC5)cc34)cc2)CC1 (stereo not drawn) [Example A150, N-((2-chlorophenyl)(cyclopropyl)methyl)-3-(4-((1-methylpiperidin-4-yl)oxy)phenyl)-1H-indazole-5-carboxamide]"
100 to 500,< 100,< 100,> 7.30,< 100,"COCCN1CCC(Oc2ccc(-c3n[nH]c4ccc(C(=O)N[C@H](c5ccsc5)C5CC5)cc34)cc2)CC1 [Example A154, (S)-N-(cyclopropyl(thiophen-3-yl)methyl)-3-(4-((1-(2-methoxyethyl)piperidin-4-yl)oxy)phenyl)-1H-indazole-5-carboxamide]"
< 100,< 100,< 100,> 7.30,< 100,"CN1CCC(Oc2ccc(-c3n[nH]c4ccc(C(=O)N[C@@H](c5sccc5Cl)C5CC5)cc34)cc2)CC1 [Example A166, (R)-N-((3-chlorothiophen-2-yl)(cyclopropyl)methyl)-3-(4-((1-methylpiperidin-4-yl)oxy)phenyl)-1H-indazole-5-carboxamide]"
100 to 500,< 100,< 100,> 7.30,< 100,"CN1CCC(Oc2ccc(-c3n[nH]c4ccc(C(=O)N[C@H](c5sccc5Cl)C5CC5)cc34)cc2)CC1 [Example A167, (S)-N-((3-chlorothiophen-2-yl)(cyclopropyl)methyl)-3-(4-((1-methylpiperidin-4-yl)oxy)phenyl)-1H-indazole-5-carboxamide]"
100 to 500,> 500,100 to 500,> 7.30,> 500,"CO[C@@H](C(=O)Nc1ccc2[nH]nc(-c3ccc(OC4CCN(C=O)CC4)cc3)c2c1)c1ccccc1 [Example A169, (R)-N-(3-(4-((1-formylpiperidin-4-yl)oxy)phenyl)-1H-indazol-5-yl)-2-methoxy-2-phenylacetamide]"
< 100,100 to 500,< 100,> 7.30,< 100,"COCCN1CCC(Oc2ccc(-c3n[nH]c4ccc(NC(=O)C(c5ccsc5)N5CCCC5)cc34)cc2)CC1 (stereo not drawn) [Example A175, N-(3-(4-((1-(2-methoxyethyl)piperidin-4-yl)oxy)phenyl)-1H-indazol-5-yl)-2-(pyrrolidin-1-yl)-2-(thiophen-3-yl)acetamide]"
100 to 500,100 to 500,100 to 500,> 7.30,100 to 500,"O=CN1CCC(Oc2ccc(-c3n[nH]c4ccc(NC(=O)C(c5ccccn5)C5CCCC5)cc34)cc2)CC1 (stereo not drawn) [Example A176, 2-cyclopentyl-N-(3-(4-((1-formylpiperidin-4-yl)oxy)phenyl)-1H-indazol-5-yl)-2-(pyridin-2-yl)acetamide]"
100 to 500,100 to 500,100 to 500,> 7.30,> 500,"CCOC(C(=O)Nc1ccc2[nH]nc(-c3ccc(OC4CCN(C)CC4)cc3)c2c1)c1ccccc1 (stereo not drawn) [Example A181, 2-ethoxy-N-(3-(4-((1-methylpiperidin-4-yl)oxy)phenyl)-1H-indazol-5-yl)-2-phenylacetamide]"
< 100,100 to 500,< 100,> 7.30,< 100,"O=C(Nc1ccc2[nH]nc(-c3ccc(OC4CCN(C5COC5)CC4)cc3)c2c1)C(c1ccsc1)N1CCCC1 (stereo not drawn) [Example A184, N-(3-(4-((1-(oxetan-3-yl)piperidin-4-yl)oxy)phenyl)-1H-indazol-5-yl)-2-(pyrrolidin-1-yl)-2-(thiophen-3-yl)acetamide]"
< 100,< 100,< 100,> 7.30,< 100,"O=CN1CCC(Oc2ccc(-c3n[nH]c4ccc(C(=O)NC(c5ccsc5)C5CC5)cc34)cc2)CC1 (stereo not drawn) [Example A186, N-(cyclopropyl(thiophen-3-yl)methyl)-3-(4-((1-formylpiperidin-4-yl)oxy)phenyl)-1H-indazole-5-carboxamide]"
< 100,100 to 500,< 100,> 7.30,> 500,"CC(C)OC(C(=O)Nc1ccc2[nH]nc(-c3ccc(OC4CCN(C)CC4)cc3)c2c1)c1ccccc1 (stereo not drawn) [Example A187, 2-isopropoxy-N-(3-(4-((1-methylpiperidin-4-yl)oxy)phenyl)-1H-indazol-5-yl)-2-phenylacetamide]"
100 to 500,> 500,100 to 500,> 7.30,> 500,"CN1CCC(Oc2ccc(-c3n[nH]c4ccc(C(=O)NC(c5ccccc5)C5CC5)cc34)cc2Cl)CC1 (stereo not drawn) [Example A188, 3-(3-chloro-4-((1-methylpiperidin-4-yl)oxy)phenyl)-N-(cyclopropyl(phenyl)methyl)-1H-indazole-5-carboxamide]"
< 100,< 100,< 100,> 7.30,100 to 500,"CC[C@H](NC(=O)c1ccc2[nH]nc(-c3ccc(OC4CCN(C5COC5)CC4)cc3)c2c1)c1ccccc1Cl [Example A193, (S)-N-(1-(2-chlorophenyl)propyl)-3-(4-((1-(oxetan-3-yl)piperidin-4-yl)oxy)phenyl)-1H-indazole-5-carboxamide]"
